The source of these data is US8329706B2, “Oxazolidinone derivatives” (Actelion Pharmaceuticals Ltd., priority 2009, dated 2012).

For assay [1], the system named is rat. The note with it: cited from earlier work.
The test system of assay [2] is rat. Conditions: rat model; cited from earlier work.
Assay [3] deals with rat. Conditions: cited from earlier work. The source holds these as a separate data set.
The target in a further assay is T1, human orexin-1 receptor (Homo sapiens, UniProt O43613).
T1 construct: expressed in transfected cells; host or cells: CHO cells (G418 selection)
T1 sequence (O43613 1-425): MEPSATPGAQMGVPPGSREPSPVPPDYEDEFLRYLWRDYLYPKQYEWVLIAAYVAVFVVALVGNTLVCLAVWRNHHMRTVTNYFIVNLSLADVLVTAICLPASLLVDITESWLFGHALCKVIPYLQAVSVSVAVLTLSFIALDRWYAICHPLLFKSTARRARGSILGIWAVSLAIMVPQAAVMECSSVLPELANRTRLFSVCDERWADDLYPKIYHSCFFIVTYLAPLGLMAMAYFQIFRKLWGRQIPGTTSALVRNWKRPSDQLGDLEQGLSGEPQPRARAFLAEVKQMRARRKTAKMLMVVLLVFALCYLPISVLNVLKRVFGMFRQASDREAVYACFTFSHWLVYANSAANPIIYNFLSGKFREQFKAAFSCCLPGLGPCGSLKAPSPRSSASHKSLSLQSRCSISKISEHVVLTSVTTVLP
Put plainly: FLIPR intracellular calcium assay, orexin receptor antagonistic activity (OX1). In kind it is cell-based. Conditions: CHO cells expressing human orexin-1 receptor; agonist 3 nM orexin-A; normalized to on-plate reference; * geomean n = 5, *2 geomean n = 2. Put shortly: (§1)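 CHO cells expressing human OX1 or OX2 receptor loaded with fluo-4 AM, then antagonist preincubated 10 min before 3 nM orexin-A. FLIPR peak calcium fluorescence compared with agonist-plus-vehicle response. IC50 normalized to an on-plate reference compound.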

In another assay the target is T2, human orexin-2 receptor (Homo sapiens, UniProt O43614).
T2 construct: expressed in transfected cells; host or cells: CHO cells (G418 selection)
T2 sequence (O43614 1-444): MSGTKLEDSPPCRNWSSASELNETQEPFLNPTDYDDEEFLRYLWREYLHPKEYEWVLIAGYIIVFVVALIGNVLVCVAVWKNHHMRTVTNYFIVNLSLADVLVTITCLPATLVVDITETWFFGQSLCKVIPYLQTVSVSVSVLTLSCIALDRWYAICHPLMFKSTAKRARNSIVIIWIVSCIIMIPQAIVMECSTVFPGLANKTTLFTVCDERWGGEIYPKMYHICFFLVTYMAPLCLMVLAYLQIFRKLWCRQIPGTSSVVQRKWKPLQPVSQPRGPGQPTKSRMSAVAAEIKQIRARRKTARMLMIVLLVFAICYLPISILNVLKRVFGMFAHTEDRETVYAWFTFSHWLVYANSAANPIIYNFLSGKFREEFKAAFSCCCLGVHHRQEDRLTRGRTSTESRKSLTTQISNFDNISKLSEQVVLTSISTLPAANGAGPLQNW
Description: FLIPR intracellular calcium assay, orexin receptor antagonistic activity (OX2). Format: cell-based. The note with it: CHO cells expressing human orexin-2 receptor; agonist 3 nM orexin-A; normalized to on-plate reference; * geomean n = 5, *2 geomean n = 2. Put shortly:
as §1
(In general: A change in cytosolic calcium serves as a functional read-out for many receptors and channels.)

One may read the IC50 as the concentration that inhibits the measured activity by half.

The structures appear in SMILES notation. Where only a bound is given, the exact number is not on record here.

In the case of `CNC(=O)[C@@H](c1ccccc1)N1CCc2cc(OC)c(OC)cc2[C@@H]1CCc1ccc(C(F)(F)F)cc1` [(2R)-2-{(1S)-6,7-dimethoxy-1-[2-(4-trifluoromethyl-phenyl)-ethyl]-3,4-dihydro-1H-isoquinolin-2-yl}-N-methyl-2-phenyl-acetamide], in the assay with rat [1], the “alertness (active wake and locomotion)” value is listed as “decrease alertness”; the “time spent in REM and NREM sleep” value was “dose-dependently increase the time spent in both REM and NREM sleep”. For the same compound, the memory function entry with rat [2] is on record as “enhance memory function”. Besides, the “activity in model of post-traumatic stress disorder” value in the assay on rat [3] is listed as “active”.
Regarding `COc1cccc(OCCCO)c1C1OC(C)(C)C(=O)N1Cc1ccc(Oc2ccccc2)cc1` (centres unmarked) [Example 99, 2-[2-(3-Hydroxy-propoxy)-6-methoxy-phenyl]-5,5-dimethyl-3-(4-phenoxy-benzyl)-oxazolidin-4-one], the figures for the concentration for half-maximal inhibition (IC50) on human orexin-1 receptor and at human orexin-2 receptor were 0.08 µM and 0.15 µM, respectively.
The matching figures for `CCOc1ccccc1C1OCC(=O)N1Cc1ccc(C(F)(F)F)cc1` (centres unmarked) [Example 3, 2-(2-Ethoxy-phenyl)-3-(4-trifluoromethyl-benzyl)-oxazolidin-4-one]: 9.99 µM and 0.23 µM.
Take `COc1cccc(OC)c1C1OCC(=O)N1Cc1ccccc1OC(F)(F)F` (centres unmarked) [Example 33, 2-(2,6-Dimethoxy-phenyl)-3-(2-trifluoromethoxy-benzyl)-oxazolidin-4-one]: the IC50 at human orexin-1 receptor is greater than 10 µM; at human orexin-2 receptor it was 0.225 µM.
The matching figures for `COc1cccc(OC)c1C1O[C@H](C)C(=O)N1Cc1ccc2ccccc2c1` (stereo partly drawn) [Example 53, 2-(2,6-Dimethoxy-phenyl)-(R)-5-methyl-3-naphthalen-2-ylmethyl-oxazolidin-4-one]: 0.047 µM and 0.065 µM.
The matching figures for `CCOc1ccccc1C1OCC(=O)N1Cc1ccc(Cl)cc1F` (centres unmarked) [Example 19, 3-(4-Chloro-2-fluoro-benzyl)-2-(2-ethoxy-phenyl)-oxazolidin-4-one]: 9.6 µM and 0.586 µM.
